Source: ChEMBL document CHEMBL1139006, “Synthesis and in vitro antibiotic activity of 16-membered 9-O-arylalkyloxime macrolides” (2006)
Values after ≈ are worked out from the molar mass of the structure shown.

Key:
Format in all cases: functional
Streptococcus pneumoniae [1] = assay: Antibacterial activity against Streptococcus pneumoniae ATCC 49619
Streptococcus pneumoniae [2] = assay: Antibacterial activity against macrolide resistant Streptococcus pneumoniae ATCC 700677
Streptococcus pneumoniae [3] = assay: Antibacterial activity against macrolide resistant Streptococcus pneumoniae ATCC 700676
Haemophilus influenzae [4] = assay: Antibacterial activity against Haemophilus influenzae EH002
Streptococcus pneumoniae [5] = assay: Antibacterial activity against macrolide resistant Streptococcus pneumoniae ATCC 700905
Haemophilus influenzae [6] = assay: Antibacterial activity against Haemophilus influenzae EH001
Haemophilus influenzae [7] = assay: Antibacterial activity against Haemophilus influenzae EH003
Streptococcus pneumoniae [8] = assay: Antibacterial activity against macrolide resistant Streptococcus pneumoniae ATCC 700906
Haemophilus influenzae [9] = assay: Antibacterial activity against Haemophilus influenzae ATCC 9006
Streptococcus pneumoniae [10] = assay: Antibacterial activity against Streptococcus pneumoniae ATCC 6301
Streptococcus pneumoniae [11] = assay: Antibacterial activity against Streptococcus pneumoniae ATCC 700671
Haemophilus influenzae [12] = assay: Antibacterial activity against Haemophilus influenzae ATCC 49766
Staphylococcus aureus [13] = assay: Antibacterial activity against Staphylococcus aureus ATCC 29213
Staphylococcus aureus [14] = assay: Antibacterial activity against macrolide resistant Staphylococcus aureus ATCC 141541
Enterococcus faecalis = assay: Antibacterial activity against Enterococcus faecalis ATCC 51575
Staphylococcus aureus [15] = assay: Antibacterial activity against macrolide resistant Staphylococcus aureus ATCC BAA-39
Staphylococcus aureus [16] = assay: Antibacterial activity against Staphylococcus aureus ATCC 6538p
[17] = test system: Staphylococcus epidermidis; assay: Antibacterial activity against Staphylococcus epidermidis ATCC 12228
Staphylococcus aureus [18] = assay: Antibacterial activity against macrolide resistant Staphylococcus aureus ATCC 33591
Staphylococcus aureus [19] = assay: Antibacterial activity against macrolide resistant Staphylococcus aureus ATCC BAA-44

Structure (SMILES)	MIC (Streptococcus pneumoniae [1]) [µg/mL]	MIC (Streptococcus pneumoniae [2]) [µg/mL]	MIC (Streptococcus pneumoniae [3]) [µg/mL]	MIC (Haemophilus influenzae [4]) [µg/mL]	MIC (Streptococcus pneumoniae [5]) [µg/mL]	MIC (Haemophilus influenzae [6]) [µg/mL]	MIC (Haemophilus influenzae [7]) [µg/mL]	MIC (Streptococcus pneumoniae [8]) [µg/mL]	MIC (Haemophilus influenzae [9]) [µg/mL]	MIC (Streptococcus pneumoniae [10]) [µg/mL]	MIC (Streptococcus pneumoniae [11]) [µg/mL]	MIC (Haemophilus influenzae [12]) [µg/mL]	MIC (Staphylococcus aureus [13]) [µg/mL]	MIC (Staphylococcus aureus [14]) [µg/mL]	MIC (Enterococcus faecalis) [µg/mL]	MIC (Staphylococcus aureus [15]) [µg/mL]	MIC (Staphylococcus aureus [16]) [µg/mL]	MIC [17] [µg/mL]	MIC (Staphylococcus aureus [18]) [µg/mL]	MIC (Staphylococcus aureus [19]) [µg/mL]
CC[C@H]1OC(=O)C[C@@H](O)[C@H](C)[C@@H](O[C@@H]2O[C@H](C)[C@@H](O)[C@H](N(C)C)[C@H]2O)[C@@H](CCN2CC(C)CC(C)C2)C[C@@H](C)C(=N/OCCCc2ccc3ncccc3c2)/C=C/C(C)=C/C1CO (some centres undefined)	0.025 (≈ 0.0284 µM)	> 12.5	0.025 (≈ 0.0284 µM)	3.12 (≈ 3.55 µM)	0.025 (≈ 0.0284 µM)	3.12 (≈ 3.55 µM)	1.56 (≈ 1.77 µM)	> 12.5	1.56 (≈ 1.77 µM)	0.025 (≈ 0.0284 µM)	0.049 (≈ 0.0557 µM)	3.12 (≈ 3.55 µM)	–	–	–	–	–	–	–	–
CC[C@H]1OC(=O)C[C@@H](O)[C@H](C)[C@@H](O[C@@H]2O[C@H](C)[C@@H](O)[C@H](N(C)C)[C@H]2O)[C@@H](CC=O)C[C@@H](C)C(=N\OCCCOc2ccc3ncccc3c2)/C=C/C(C)=C/C1CO (some centres undefined)	0.01 (≈ 0.0125 µM)	0.2 (≈ 0.251 µM)	0.025 (≈ 0.0313 µM)	–	0.025 (≈ 0.0313 µM)	–	–	> 12.5	6.25 (≈ 7.83 µM)	0.025 (≈ 0.0313 µM)	0.025 (≈ 0.0313 µM)	6.25 (≈ 7.83 µM)	0.098 (≈ 0.123 µM)	0.2 (≈ 0.251 µM)	> 12.5	> 12.5	0.025 (≈ 0.0313 µM)	0.098 (≈ 0.123 µM)	> 12.5	> 12.5
CC[C@H]1OC(=O)[C@H](C)[C@@H](O[C@H]2C[C@@](C)(OC)[C@@H](O)[C@H](C)O2)[C@H](C)[C@@H](O[C@@H]2O[C@H](C)C[C@H](N(C)C)[C@H]2O)[C@](C)(O)C[C@@H](C)C(=O)[C@H](C)[C@@H](O)[C@]1(C)O [ERYTHROMYCIN]	0.049 (≈ 0.0668 µM)	6.25 (≈ 8.52 µM)	6.25 (≈ 8.52 µM)	6.25 (≈ 8.52 µM)	3.12 (≈ 4.25 µM)	3.12 (≈ 4.25 µM)	3.12 (≈ 4.25 µM)	> 12.5	1.56 (≈ 2.13 µM)	0.025 (≈ 0.0341 µM)	0.049 (≈ 0.0668 µM)	6.25 (≈ 8.52 µM)	0.2 (≈ 0.273 µM)	–	> 12.5	> 12.5	0.098 (≈ 0.134 µM)	0.2 (≈ 0.273 µM)	> 12.5	> 12.5
CC[C@H]1OC(=O)C[C@@H](O)[C@H](C)[C@@H](O[C@@H]2O[C@H](C)[C@@H](O)[C@H](N(C)C)[C@H]2O)[C@@H](CC=O)C[C@@H](C)C(=O)/C=C/C(C)=C/C1CO (some centres undefined)	0.098 (≈ 0.164 µM)	6.25 (≈ 10.5 µM)	0.78 (≈ 1.3 µM)	6.25 (≈ 10.5 µM)	0.78 (≈ 1.3 µM)	3.12 (≈ 5.22 µM)	1.56 (≈ 2.61 µM)	> 12.5	1.56 (≈ 2.61 µM)	0.025 (≈ 0.0418 µM)	0.049 (≈ 0.082 µM)	1.56 (≈ 2.61 µM)	0.78 (≈ 1.3 µM)	1.56 (≈ 2.61 µM)	> 12.5	> 12.5	0.39 (≈ 0.652 µM)	0.39 (≈ 0.652 µM)	> 12.5	> 12.5
CC[C@H]1OC(=O)C[C@@H](O)[C@H](C)[C@@H](O[C@@H]2O[C@H](C)[C@@H](O)[C@H](N(C)C)[C@H]2O)[C@@H](CC=O)C[C@@H](C)C(=N/OCCCCc2cnc3ccccc3c2)/C=C/C(C)=C/C1CO (some centres undefined)	0.049 (≈ 0.0616 µM)	0.025 (≈ 0.0314 µM)	0.025 (≈ 0.0314 µM)	–	0.025 (≈ 0.0314 µM)	–	–	> 12.5	6.25 (≈ 7.85 µM)	0.025 (≈ 0.0314 µM)	0.025 (≈ 0.0314 µM)	6.25 (≈ 7.85 µM)	0.2 (≈ 0.251 µM)	0.2 (≈ 0.251 µM)	> 12.5	> 12.5	0.025 (≈ 0.0314 µM)	0.2 (≈ 0.251 µM)	> 12.5	> 12.5
CC[C@H]1OC(=O)C[C@@H](O)[C@H](C)[C@@H](O[C@@H]2O[C@H](C)[C@@H](O)[C@H](N(C)C)[C@H]2O)[C@@H](C=O)C[C@@H](C)C(=N\OCCCc2ccc3ncccc3c2)/C=C/C(C)=C/C1CO (some centres undefined)	0.025 (≈ 0.0326 µM)	> 12.5	0.025 (≈ 0.0326 µM)	6.25 (≈ 8.14 µM)	0.025 (≈ 0.0326 µM)	3.12 (≈ 4.06 µM)	3.12 (≈ 4.06 µM)	> 12.5	1.56 (≈ 2.03 µM)	0.025 (≈ 0.0326 µM)	0.098 (≈ 0.128 µM)	3.12 (≈ 4.06 µM)	–	–	–	–	–	–	–	–
CC[C@H]1OC(=O)C[C@@H](O)[C@H](C)[C@@H](O[C@@H]2O[C@H](C)[C@@H](O)[C@H](N(C)C)[C@H]2O)[C@@H](CC=O)C[C@@H](C)C(=N/OCCOc2ccccc2)/C=C/C(C)=C/C1CO (some centres undefined)	0.01 (≈ 0.0136 µM)	0.39 (≈ 0.532 µM)	0.025 (≈ 0.0341 µM)	–	0.025 (≈ 0.0341 µM)	–	–	> 12.5	–	0.025 (≈ 0.0341 µM)	0.025 (≈ 0.0341 µM)	–	0.2 (≈ 0.273 µM)	0.39 (≈ 0.532 µM)	> 12.5	> 12.5	0.098 (≈ 0.134 µM)	0.2 (≈ 0.273 µM)	> 12.5	> 12.5
CC[C@H]1OC(=O)[C@H](C)C(=O)[C@H](C)[C@@H](O[C@@H]2O[C@H](C)C[C@H](N(C)C)[C@H]2O)[C@](C)(OC)C[C@@H](C)C(=O)[C@H](C)[C@H]2N(CCCCn3cnc(-c4cccnc4)c3)C(=O)O[C@]12C [TELITHROMYCIN]	0.049 (≈ 0.0603 µM)	0.025 (≈ 0.0308 µM)	0.098 (≈ 0.121 µM)	6.25 (≈ 7.7 µM)	0.025 (≈ 0.0308 µM)	1.56 (≈ 1.92 µM)	1.56 (≈ 1.92 µM)	0.2 (≈ 0.246 µM)	1.56 (≈ 1.92 µM)	0.025 (≈ 0.0308 µM)	0.025 (≈ 0.0308 µM)	3.12 (≈ 3.84 µM)	–	–	–	–	–	–	–	–
CC[C@H]1OC(=O)C[C@@H](O)[C@H](C)[C@@H](O[C@@H]2O[C@H](C)[C@@H](O)[C@H](N(C)C)[C@H]2O)[C@@H](CC=O)C[C@@H](C)C(=N\OC/C=C/c2cnc3ccccc3c2)/C=C/C(C)=C/C1CO (some centres undefined)	0.025 (≈ 0.0321 µM)	> 12.5	0.049 (≈ 0.0628 µM)	–	0.049 (≈ 0.0628 µM)	–	–	> 12.5	–	0.025 (≈ 0.0321 µM)	0.049 (≈ 0.0628 µM)	–	0.39 (≈ 0.5 µM)	0.39 (≈ 0.5 µM)	> 12.5	> 12.5	0.098 (≈ 0.126 µM)	0.049 (≈ 0.0628 µM)	> 12.5	> 12.5
CC[C@H]1OC(=O)C[C@@H](O)[C@H](C)[C@@H](O[C@@H]2O[C@H](C)[C@@H](O)[C@H](N(C)C)[C@@H]2O)[C@@H](CCN2CC(C)CC(C)C2)C[C@@H](C)C(=N/OCCCc2ccc3ncccc3c2)/C=C/C(C)=C/C1CO (some centres undefined)	6.25 (≈ 7.11 µM)	> 12.5	> 12.5	–	> 12.5	–	–	> 12.5	–	6.25 (≈ 7.11 µM)	6.25 (≈ 7.11 µM)	–	> 12.5	> 12.5	> 12.5	> 12.5	12.5 (≈ 14.2 µM)	> 12.5	> 12.5	> 12.5
CC[C@H]1OC(=O)C[C@@H](O)[C@H](C)[C@@H](O[C@@H]2O[C@H](C)[C@@H](O)[C@H](N(C)C)[C@@H]2O)[C@@H](CCN2CC(C)CC(C)C2)C[C@@H](C)C(=O)/C=C/C(C)=C/C1CO (some centres undefined)	0.78 (≈ 1.12 µM)	> 12.5	1.56 (≈ 2.24 µM)	–	1.56 (≈ 2.24 µM)	–	–	> 12.5	–	0.39 (≈ 0.561 µM)	0.78 (≈ 1.12 µM)	–	1.56 (≈ 2.24 µM)	1.56 (≈ 2.24 µM)	> 12.5	> 12.5	0.39 (≈ 0.561 µM)	0.78 (≈ 1.12 µM)	> 12.5	> 12.5
CC[C@H]1OC(=O)C[C@@H](O)[C@H](C)[C@@H](O[C@@H]2O[C@H](C)[C@@H](O)[C@H](N(C)C)[C@H]2O)[C@@H](CC=O)C[C@@H](C)C(=N/OCC(=O)N2CCN(c3ccccc3)CC2)/C=C/C(C)=C/C1CO (some centres undefined)	0.01 (≈ 0.0123 µM)	6.25 (≈ 7.67 µM)	0.39 (≈ 0.479 µM)	–	0.2 (≈ 0.245 µM)	–	–	> 12.5	–	0.025 (≈ 0.0307 µM)	0.025 (≈ 0.0307 µM)	–	1.56 (≈ 1.91 µM)	1.56 (≈ 1.91 µM)	> 12.5	> 12.5	0.78 (≈ 0.957 µM)	0.2 (≈ 0.245 µM)	> 12.5	> 12.5
CC[C@H]1OC(=O)C[C@@H](O)[C@H](C)[C@@H](O[C@@H]2O[C@H](C)[C@@H](O)[C@H](N(C)C)[C@@H]2O)[C@@H](CCN2CC(C)CC(C)C2)C[C@@H](C)C(=N\OCc2ccc(F)cc2)/C=C/C(C)=C/C1CO (some centres undefined)	0.39 (≈ 0.477 µM)	> 12.5	0.39 (≈ 0.477 µM)	–	0.39 (≈ 0.477 µM)	–	–	> 12.5	–	0.39 (≈ 0.477 µM)	0.39 (≈ 0.477 µM)	–	3.12 (≈ 3.81 µM)	3.12 (≈ 3.81 µM)	> 12.5	> 12.5	0.78 (≈ 0.953 µM)	3.12 (≈ 3.81 µM)	> 12.5	> 12.5
